Reference: patent publication US20220218679A1, “NOVEL COMPOUNDS AND PHARMACEUTICAL COMPOSITIONS THEREOF FOR THE TREATMENT OF INFLAMMATORY DISORDERS” (Galapagos NV, priority 2019, published 2022)
Like-named read-outs stand apart in the source and are kept apart here.

Tests used:
[1] = test system: MIA induced inflammatory hypersensitivity to pain; assay: MIA rat pain model (weight bearing); assay type: in vivo, Male Sprague Dawley
Source text: 5.11.1. Principle of the Assay
The mono-iodoacetate (MIA) model has become a standard model established by Van der Kraan (van der Kraan et al., 1989) for modelling joint disruption in OA in rat.
Intra-articular injection of MIA in rodents reproduces OA-like lesions and functional impairment that can be analyzed and quantified. MIA is an inhibitor of […], disrupting cellular glycolysis and eventually resulting in cell death (van der Kraan et al., 1989).
The MIA pain mouse model described by Pitcher et al. (Pitcher et al. 2016) is used to evaluate the effect of a test compound against tactile allodynia by intra-articular injection of MIA causes chondrocyte cell death, leading to cartilage degeneration and subsequent subchondral bone alterations such as appearance of bone osteophytes (Janusz et al., 2001).
MIA is the one most often used, particularly to test the efficacy of pharmacologic agents to treat pain, as this model generates a reproducible, robust, and rapid pain-like phenotype that can be graded by altering MIA dosage.
Male Sprague Dawley (250-300 g) were housed at 22±1° C. and in light-controlled environment (lights on from 7 am to 8 pm) with ad libitum access to food and water.
Inflammatory hypersensitivity to pain was induced by an injection of Monosodium Iodoacetate (MIA) 25 ul 80 mg/ml solution, into the left knee joint. Animals developed inflammatory response within 3 days post MIA.
The test compounds were administered to the treatment groups on a […] basis, starting from day 3 (D3), and continued until the end-point day on D28.
On day 3, weight-bearing measurements were taken and animals ranked and randomized to treatment groups.
On the test days, pre-dose allodynia was evaluated prior to dosing, and the effects of the administered compounds assessed 2 hours post dosing.
The test compounds were administered to the treatment groups on daily basis, according to treatment group, (some were dosed days 3-7 post MIA, and some were dosed days 24-28 post MIA) and 2 hours post dosing weight-bearing measurements were taken.
The negative control group (n=6) was daily dosed per os with the vehicle (methylcellulose, MC 0.5%), the positive control group (n=10) was daily dosed per os with Celecoxib (50 mg/kg), and the test compound group (n=10) was daily dosed per os, with 0.5% MC/Solutol for days 3-7 post MIA (Inflammatory Phase). […]
For each readout, mean and sem are calculated. A difference statistically significant between intact or treated groups and in MIA vehicle group is evaluated with Prism software using a Two-way ANOVA (for treatment groups) followed by a Dunnett's multiple comparisons post-hoc test. *: p<0.05; **: p<0.01; ***: p<0.001 versus MIA Vehicle group.

THP-1-Lucia NFκB cells = assay: THP1-Lucia NFκB reporter assay (LPS, IL-1β, TNFα triggering); assay type: cell-based; conditions: for EC50: 24 h incubation
Source text: This assay was used to evaluate the IRAK4 selectivity and potency of the compounds of the invention upon IRAK4 dependent (LPS and IL-1β) and independent triggering (TNFα), in a THP1-Lucia NFκB reporter assay.
THP-1-Lucia NFκB cells (Invivogen—5, rue Jean Rodier 31400 Toulouse France—cat #thp1-nfkb) were cultivated as recommended by the supplier using split cycles each cycle comprising a succession of thawing/expansion/seeding. The data reported were generated using cells having between 3 to 9 cycles. On the day of the experiment THP-1-Lucia NFκB cells were counted and seeded at a density of 1,000,000 cells/mL in culture medium (RPMI 1640 (Gibco, Cat #52400-025)+10% FBS (Sigma, Cat #F7524-500ML)+1% P/S (Gibco, Cat #15140-122)) by pipetting 54 μL/well in a 384 well plate. Thereafter, 6 μL of a 10× trigger solution was added to all wells, at final concentrations of 2.5, 10 and 3 ng/mL for respectively LPS, TNFα and IL-1β, except for ‘no trigger wells’ where 6 μL culture medium only was added.
After trigger addition, compounds were added with a digital compound dispenser, in a 8-points concentration range, using 3-fold dilution steps and normalizing the final DMSO concentration to 0.2% DMSO in all wells.
After 24 h incubation at 37° C., 5% CO2, 40 μL of supernatant was collected per well and transferred to a new 384 well plate that was then stored at −20° C. until further use.
For the readout, supernatant samples were thawed on ice and 5 μL sample was transferred from each well to a new 384-well plate. 20 μL of Quanti-Luc solution (Quanti-Luc powder (Invivogen, Cat #rep-qlc1) dissolved in 25 mL sterile water as indicated by the manufacturer) was added to each well after which luminescence was immediately measured on an Envision instrument.
To measure the inhibition of LPS/TNFα/IL-1β-induced NFκB-reporter activity, percentage inhibition (PIN) values were calculated for all concentrations tested, compared to controls. […]

EC50 (THP-1-Lucia NFκB cells; IL-1β trigger 3 ng/mL, read-out: IL-1β driven NFκB-reporter activity, average pEC50 (converted)): 100 nM
EC50 (THP-1-Lucia NFκB cells; LPS trigger 2.5 ng/mL, read-out: LPS driven NFκB-reporter activity, average pEC50 (converted)): 100 nM
Compound: COc1cn2nc(CCC(C)(C)O)cc2cc1NC(=O)c1cccn(C2CC2)c1=O [Compound 1, 1-cyclopropyl-N-[2-(3-hydroxy-3-methylbutyl)-6-methoxypyrazolo[1,5-a]pyridin-5-yl]-2-oxopyridine-3-carboxamide]
reversal of inflammatory response on weight bearing ([1]; 5 mg/kg daily per os, days 5-7): significantly reversed the inflammatory response
reversal of inflammatory response on weight bearing ([1]; 5 mg/kg daily per os, days 26-28): significantly reversed the inflammatory response
reversal of inflammatory response on weight bearing ([1]; 30 mg/kg daily per os, days 3-7): significantly reversed the inflammatory response
reversal of inflammatory response on weight bearing ([1]; 30 mg/kg daily per os, days 26-28): significantly reversed the inflammatory response
TNFα mediated NFκB-reporter activity (THP-1-Lucia NFκB cells; TNFα trigger 10 ng/mL, 24 h incubation (IRAK4 independent)): no activity was observed
